The values that follow are results of earlier work, collected in patent US20070254835A1, “COMPOSITION AND METHOD FOR TREATING NEUROLOGICAL DISORDERS” (priority 2003, published 2007).

Data set [1] relates to MT-3. As to conditions: brain tissue.
Data set [2] has as its system HDAC. As to conditions: in words only; literature.
Data set [3] relates to mammalian HDAC. Conditions: Yoshida et al. 1990.
In data set [4] the test system is DNA methyltransferase. As to conditions: after incorporation at a site of methylation.
The conditions of data set [5]: sterile powder formulation stored at 2-8° C.

On to `Nc1ncn([C@@H]2O[C@H](CO)[C@@H](O)[C@H]2O)c(=O)n1` [5-azacytidine], for which the “MT-3 expression after treatment” value in data set [1] is on record as “re-expression of MT-3”. As for `O=C(/C=C/c1cccc(C(=O)NO)c1)NO` [CBHA, m-carboxy-cinnamic acid bishydroxamic acid], in data set [2], the “concentration at which HDAC is inhibited” value is “micromolar concentration or lower”. With `C/C=C1\NC(=O)[C@H]2CSSCC/C=C/[C@H](CC(=O)N[C@H](C(C)C)C(=O)N2)OC(=O)[C@H](C(C)C)NC1=O` [Depsipeptide, depsipeptide], the “concentration at which HDAC is inhibited” value in data set [2] was “micromolar concentrations”. For the molecule `CC(/C=C/C(=O)NO)=C\[C@@H](C)C(=O)c1ccc(N(C)C)cc1` [TSA, trichostatin A], in data set [3], the “inhibition of mammalian HDAC” value is “potent inhibitor”. In the case of `Nc1ncn([C@H]2C[C@H](O)[C@@H](CO)O2)c(=O)n1` [decitabine, 5-aza-2′-deoxycytidine], the “half life in vivo” value is recorded as “short half life”. In data set [4], the “effect on DNA methyltransferase” value is “irreversible inactivation”. Also, the “time the drug is kept stable” value in data set [5] was “at least 2 years”. The tissue distribution entry (in vivo) was “excellent tissue distribution”. Consider depudecin, for which the “concentration at which HDAC is inhibited” value in data set [2] was “micromolar concentrations”.
